# Source: PubChem BioAssay AID248 (DTP/NCI, 2004)
# Values joined by “and” are separate entries in the source; they are usually repeats but may differ in a detail not shown here. Identical values can stand only once. Inconclusive results and toxic doses are left out.
# Tested on: L1210 leukemia ip in BDF1 mice, survival T/C
# Assay: NCI In Vivo Anticancer Drug Screen. Data for tumor model L1210 Leukemia (intraperitoneal) in B6D2F1 (BDF1) mice
# Details: endpoint: mean survival time, higher = longer survival
# Summary of the method: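 In this screen, tumor-bearing mice given compound are compared to those given vehicle, and their survival values are reported as a treated-to-control quotient.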
# [1] = dose: 100.0 mg/kg/injection, schedule: Q04DX003 (ip), vehicle: saline with Tween-80
# [2] = dose: 100.0 mg/kg/injection, schedule: Q01DX001 (ip), vehicle: Klucel (hydroxypropylcellulose) (HPC)
# [3] = dose: 100.0 mg/kg/injection, schedule: Q04DX003 (ip), vehicle: Klucel (hydroxypropylcellulose) (HPC)
# [4] = dose: 200.0 mg/kg/injection, schedule: Q01DX001 (ip), vehicle: Klucel (hydroxypropylcellulose) (HPC)
# [5] = dose: 200.0 mg/kg/injection, schedule: Q04DX003 (ip), vehicle: Klucel (hydroxypropylcellulose) (HPC)
# [6] = dose: 400.0 mg/kg/injection, schedule: Q01DX001 (ip), vehicle: Klucel (hydroxypropylcellulose) (HPC)
# [7] = dose: 200.0 mg/kg/injection, schedule: Q04DX003 (ip), vehicle: saline with Tween-80
# [8] = dose: 400.0 mg/kg/injection, schedule: Q04DX003 (ip), vehicle: saline with Tween-80
# [9] = dose: 100.0 mg/kg/injection, schedule: Q01DX009 (ip), vehicle: Klucel (hydroxypropylcellulose) (HPC)
# [10] = dose: 200.0 mg/kg/injection, schedule: Q01DX009 (ip), vehicle: Klucel (hydroxypropylcellulose) (HPC)
# [11] = dose: 400.0 mg/kg/injection, schedule: Q01DX009 (ip), vehicle: Klucel (hydroxypropylcellulose) (HPC)
# [12] = dose: 100.0 mg/kg/injection, schedule: Q04DX002 (ip), vehicle: Klucel (hydroxypropylcellulose) (HPC)
# [13] = dose: 200.0 mg/kg/injection, schedule: Q04DX002 (ip), vehicle: Klucel (hydroxypropylcellulose) (HPC)
# [14] = dose: 200.0 mg/kg/injection, schedule: Q01DX001 (ip), vehicle: saline
# [15] = dose: 10.0 mg/kg/injection, schedule: Q01DX001 (ip), vehicle: saline
# [16] = dose: 100.0 mg/kg/injection, schedule: Q01DX001 (ip), vehicle: carboxymethylcellulose (CMC)
# [17] = dose: 200.0 mg/kg/injection, schedule: Q01DX001 (ip), vehicle: carboxymethylcellulose (CMC)
smiles,measurement,setting,value
C#CCCCN1CCC2(CC1)C(=O)N(C(=O)N(C)C)CN2c1ccccc1,T/C,"dose: 25.0 mg/kg/injection, schedule: Q04DX003 (ip), vehicle: saline with Tween-80",105 % of control
same,T/C,"dose: 50.0 mg/kg/injection, schedule: Q04DX003 (ip), vehicle: saline with Tween-80",103 % of control
same,T/C,[1],88 % of control and 92 % of control
O=C(CNNc1ccc([N+](=O)[O-])cn1)Nc1ccc(S(=O)(=O)c2ccc(NC(=O)CNNc3ccc([N+](=O)[O-])cn3)cc2)cc1,T/C,"dose: 10.0 mg/kg/injection, schedule: Q01DX Z (ip), vehicle: methylcellulose (MC)",91 % of control
same,T/C,"dose: 15.0 mg/kg/injection, schedule: Q01DX Z (ip), vehicle: methylcellulose (MC)",95 % of control
same,T/C,"dose: 22.5 mg/kg/injection, schedule: Q01DX Z (ip), vehicle: methylcellulose (MC)",94 % of control
O=C1NN=C(c2ccccc2)CC1c1ccccc1 (stereo not drawn),T/C,[2],100 % of control
same,T/C,[3],101 % of control
same,T/C,[4],97 % of control
same,T/C,[5],96 % of control
same,T/C,[6],100 % of control
same,T/C,"dose: 400.0 mg/kg/injection, schedule: Q04DX003 (ip), vehicle: Klucel (hydroxypropylcellulose) (HPC)",93 % of control
O=C(O)CNC(=O)CNC(=O)C1NC(C(F)(F)F)(C(F)(F)F)OC1(C(F)(F)F)C(F)(F)F (stereo not drawn),T/C,[2],97 % of control
same,T/C,[4],101 % of control
same,T/C,[6],92 % of control
ClCCCOC1CCCCO1 (stereo not drawn),T/C,[3],89 % of control
same,T/C,[1],107 % of control
same,T/C,[5],95 % of control
same,T/C,[7],96 % of control
same,T/C,[8],96 % of control
COC1=C(C(=O)O)P(C)(=O)CC1 (stereo not drawn),T/C,"dose: 50.0 mg/kg/injection, schedule: Q04DX002 (ip), vehicle: saline with Tween-80",95 % of control
same,T/C,"dose: 100.0 mg/kg/injection, schedule: Q04DX002 (ip), vehicle: saline with Tween-80",98 % of control
same,T/C,"dose: 200.0 mg/kg/injection, schedule: Q04DX002 (ip), vehicle: saline with Tween-80",95 % of control
CC1(C(Cl)Cl)C=CC(=O)C=C1,T/C,[9],90 % of control
same,T/C,"dose: 100.0 mg/kg/injection, schedule: Q04DX003 (ip), vehicle: other",103 % of control
same,T/C,[10],87 % of control
same,T/C,"dose: 200.0 mg/kg/injection, schedule: Q04DX003 (ip), vehicle: other",111 % of control
same,T/C,[11],106 % of control
same,T/C,"dose: 400.0 mg/kg/injection, schedule: Q04DX003 (ip), vehicle: other",95 % of control
Cc1cc(S(=O)(=O)F)ccc1NC(=O)NCc1ccc([N+](=O)[O-])cc1,T/C,[9],100 % of control
same,T/C,[10],106 % of control
CSc1cccc(N2C(=O)C=CC2=O)c1,T/C,"dose: 2.5 mg/kg/injection, schedule: Q04DX002 (ip), vehicle: Klucel (hydroxypropylcellulose) (HPC)",92 % of control
same,T/C,"dose: 5.0 mg/kg/injection, schedule: Q04DX002 (ip), vehicle: Klucel (hydroxypropylcellulose) (HPC)",88 % of control
same,T/C,"dose: 10.0 mg/kg/injection, schedule: Q04DX002 (ip), vehicle: Klucel (hydroxypropylcellulose) (HPC)",95 % of control and 97 % of control
O=C(O)CC(CO)C(c1ccccc1)c1ccccc1 (stereo not drawn),T/C,[12],97 % of control
same,T/C,[13],97 % of control
CC(C)(C)NC(=O)CCl,T/C,[2],93 % of control
same,T/C,[4],106 % of control
O=C(Nc1cccc(F)c1)Nc1ccc([N+](=O)[O-])cc1Cl,T/C,[9],101 % of control
same,T/C,[10],100 % of control
same,T/C,[11],103 % of control
CC(C)NC(=O)CS(=O)(=O)c1ccc(N)cc1,T/C,[1],97 % of control
same,T/C,[7],97 % of control
same,T/C,[8],95 % of control
CC(C)(N)CBr,T/C,"dose: 100.0 mg/kg/injection, schedule: Q04DX002 (ip), vehicle: saline",100 % of control
same,T/C,"dose: 200.0 mg/kg/injection, schedule: Q04DX002 (ip), vehicle: saline",113 % of control
same,T/C,"dose: 400.0 mg/kg/injection, schedule: Q04DX002 (ip), vehicle: saline",95 % of control
Cc1ccc(O)c(N=O)c1.[Co],T/C,"dose: 50.0 mg/kg/injection, schedule: Q01DX001 (ip), vehicle: saline",97 % of control
same,T/C,"dose: 100.0 mg/kg/injection, schedule: Q01DX001 (ip), vehicle: saline",109 % of control
same,T/C,[14],115 % of control
CCOC(=O)Nc1ccccn1,T/C,[12],100 % of control
same,T/C,[13],103 % of control
same,T/C,"dose: 400.0 mg/kg/injection, schedule: Q04DX002 (ip), vehicle: Klucel (hydroxypropylcellulose) (HPC)",92 % of control
CC[N+](CC)(CC)CCOc1cccc(OCC[N+](CC)(CC)CC)c1OCC[N+](CC)(CC)CC,T/C,"dose: 5.0 mg/kg/injection, schedule: Q01DX001 (ip), vehicle: saline",95 % of control
same,T/C,[15],98 % of control
COc1ccc(OC)c(C(=O)CCCC(=O)O)c1,T/C,"dose: 100.0 mg/kg/injection, schedule: Q01DX009 (ip), vehicle: acetone",91 % of control
same,T/C,[1],96 % of control
same,T/C,"dose: 200.0 mg/kg/injection, schedule: Q01DX009 (ip), vehicle: acetone",86 % of control
same,T/C,[7],89 % of control
same,T/C,"dose: 400.0 mg/kg/injection, schedule: Q01DX009 (ip), vehicle: acetone",90 % of control
same,T/C,[8],91 % of control
CC(=O)c1ccc2c(c1)C(=O)c1ccccc1-2,T/C,[16],92 % of control
same,T/C,[17],93 % of control
same,T/C,"dose: 400.0 mg/kg/injection, schedule: Q01DX001 (ip), vehicle: carboxymethylcellulose (CMC)",93 % of control
CCCC(NC)C(CC)CN (stereo not drawn),T/C,"dose: 50.0 mg/kg/injection, schedule: Q01DX001 (ip), vehicle: carboxymethylcellulose (CMC)",105 % of control and 120 % of control
same,T/C,"dose: 75.0 mg/kg/injection, schedule: Q01DX001 (ip), vehicle: saline",97 % of control
same,T/C,"dose: 88.0 mg/kg/injection, schedule: Q01DX001 (ip), vehicle: saline",109 % of control
same,T/C,[16],104 % of control
same,T/C,"dose: 133.0 mg/kg/injection, schedule: Q01DX001 (ip), vehicle: saline",101 % of control
same,T/C,"dose: 150.0 mg/kg/injection, schedule: Q01DX001 (ip), vehicle: saline",97 % of control
same,T/C,[17],93 % of control and 242 % of control
same,T/C,[14],101 % of control
COc1ccc(-n2c(=O)c(N=Nc3ccc(Br)cc3)c(O)n(-c3ccc(I)cc3)c2=S)cc1,T/C,"dose: 50.0 mg/kg/injection, schedule: Q01DX001 (ip), vehicle: Klucel (hydroxypropylcellulose) (HPC)",103 % of control
same,T/C,[2],100 % of control
same,T/C,[4],91 % of control
COC1(OC)C2C=CC1C1C(=O)CC1C(=O)C2 (stereo not drawn),T/C,"dose: 75.0 mg/kg/injection, schedule: Q01DX009 (ip), vehicle: Klucel (hydroxypropylcellulose) (HPC)",108 % of control
same,T/C,[2],100 % of control
same,T/C,"dose: 150.0 mg/kg/injection, schedule: Q01DX009 (ip), vehicle: Klucel (hydroxypropylcellulose) (HPC)",113 % of control
same,T/C,[4],103 % of control
same,T/C,"dose: 300.0 mg/kg/injection, schedule: Q01DX009 (ip), vehicle: Klucel (hydroxypropylcellulose) (HPC)",105 % of control
same,T/C,[6],90 % of control
CCc1ccc2ccc3c4ccccc4ccc3[n+]2c1,T/C,[15],93 % of control
same,T/C,"dose: 20.0 mg/kg/injection, schedule: Q01DX001 (ip), vehicle: saline",90 % of control
same,T/C,"dose: 40.0 mg/kg/injection, schedule: Q01DX001 (ip), vehicle: saline",94 % of control
O=C(O)c1ccc(Br)cc1,T/C,"dose: 100.0 mg/kg/injection, schedule: Q04DX003 (ip), vehicle: saline",89 % of control
same,T/C,"dose: 200.0 mg/kg/injection, schedule: Q04DX003 (ip), vehicle: saline",86 % of control
Nc1ccc(C(=O)Nc2ccc(NC(=O)Nc3ccc(NC(=O)c4ccc(N)cc4)c(S(=O)(=O)O)c3)cc2S(=O)(=O)O)cc1,T/C,"dose: 60.0 mg/kg/injection, schedule: Q01DX Z (ip), vehicle: carboxymethylcellulose (CMC)",96 % of control
same,T/C,"dose: 120.0 mg/kg/injection, schedule: Q01DX Z (ip), vehicle: carboxymethylcellulose (CMC)",98 % of control
same,T/C,"dose: 240.0 mg/kg/injection, schedule: Q01DX Z (ip), vehicle: carboxymethylcellulose (CMC)",95 % of control
same,T/C,"dose: 240.0 mg/kg/injection, schedule: Q01DX Z (oral), vehicle: carboxymethylcellulose (CMC)",106 % of control
same,T/C,"dose: 480.0 mg/kg/injection, schedule: Q01DX Z (ip), vehicle: carboxymethylcellulose (CMC)",95 % of control
same,T/C,"dose: 480.0 mg/kg/injection, schedule: Q01DX Z (oral), vehicle: carboxymethylcellulose (CMC)",112 % of control
same,T/C,"dose: 960.0 mg/kg/injection, schedule: Q01DX Z (oral), vehicle: carboxymethylcellulose (CMC)",93 % of control
